# Data taken from BindingDB's records for doi:10.7270/Q2ZW1JC6 (Nmmlsc, 2016).
# Target: Ras-related protein Rab-2A (Canis lupus familiaris, UniProt P61105)
# Experiment: Rab2A fluorescent GTP competition potency – biochemical, pyrazoline series, Bodipy-FL-GTP, flow cytometry, multiplex, SAR follow-up (AID 2045)
# Conditions: not given
# Chain of Ras-related protein Rab-2A (P61105 whole entry): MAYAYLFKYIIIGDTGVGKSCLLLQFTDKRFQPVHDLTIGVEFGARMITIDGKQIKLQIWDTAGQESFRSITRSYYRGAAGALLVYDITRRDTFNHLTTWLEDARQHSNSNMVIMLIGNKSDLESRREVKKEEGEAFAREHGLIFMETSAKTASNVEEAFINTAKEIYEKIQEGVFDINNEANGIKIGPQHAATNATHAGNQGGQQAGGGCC
row,Structure (SMILES),EC50 [µM]
1,"NS(=O)(=O)c1ccc(N2N=C(c3ccc(Br)cc3)CC2c2ccc(F)cc2)cc1 (stereo unspecified) [4-[5-(4-bromophenyl)-3-(4-fluorophenyl)-3,4-dihydropyrazol-2-yl]benzenesulfonamide]",> 30
2,"FC(F)(F)c1ccccc1C1CC(c2ccc(Br)cc2)=NN1c1ccccc1 (stereo unspecified) [5-(4-bromophenyl)-2-phenyl-3-[2-(trifluoromethyl)phenyl]-3,4-dihydropyrazole]",> 30
3,COc1ccccc1C1CC(c2ccccc2)=NN1c1ccccc1 (stereo unspecified),> 30
4,COc1ccc(C2CC(c3cccc(N(C)C)c3)=NN2c2ccc(S(N)(=O)=O)cc2)cc1 (stereo unspecified),> 30
5,"COc1ccc(C2CC(C)=NN2c2ccc(S(N)(=O)=O)cc2)cc1 (stereo unspecified) [4-[3-(4-methoxyphenyl)-5-methyl-3,4-dihydropyrazol-2-yl]benzenesulfonamide]",> 30
6,"COc1ccc(C2CC(c3cccc(F)c3)=NN2c2ccc(S(N)(=O)=O)cc2)cc1 (stereo unspecified) [4-[5-(3-fluorophenyl)-3-(4-methoxyphenyl)-3,4-dihydropyrazol-2-yl]benzenesulfonamide]",> 30
7,"Fc1ccc(C2=NN(c3cccc(Br)c3)C(c3ccccc3)C2)cc1 (stereo unspecified) [2-(3-bromophenyl)-5-(4-fluorophenyl)-3-phenyl-3,4-dihydropyrazole]",> 30
8,COc1ccc(C2CC(c3cccc(Cl)c3)=NN2c2ccc(S(N)(=O)=O)cc2)cc1 (stereo unspecified) [UNM-0000306134],> 30
9,"O=S(=O)(c1ccc(N2N=C(c3ccc(Br)cc3)CC2c2ccccc2)cc1)C(F)F (stereo unspecified) [5-(4-bromophenyl)-2-[4-(difluoromethylsulfonyl)phenyl]-3-phenyl-3,4-dihydropyrazole]",> 30
10,NS(=O)(=O)c1ccc(N2N=C(c3ccccc3)CC2c2ccccc2Cl)cc1 (stereo unspecified) [KUC103446N],> 30
11,"CN(C)c1ccc(C2CC(c3ccccc3)=NN2c2ccccc2)cc1 (stereo unspecified) [4-(2,5-diphenyl-3,4-dihydropyrazol-3-yl)-N,N-dimethylaniline]",> 30
12,CN(C)c1ccc(C2CC(c3ccc(Br)cc3)=NN2c2ccccc2)cc1 (stereo unspecified) [UNM-0000305846],> 30
13,O=S(=O)(c1ccc(N2N=C(c3ccccc3)CC2c2ccccc2)cc1)C(F)F (stereo unspecified),> 30
14,O=S(=O)(O)c1ccc(N2N=C(c3ccccc3)CC2c2ccccc2)cc1 (stereo unspecified) [UNM-0000305834],> 30
15,COc1ccc(C2CC(c3ccc(Cl)cc3)=NN2c2ccc(S(N)(=O)=O)cc2)cc1 (stereo unspecified),> 30
16,O=[N+]([O-])c1ccc([N+]2=N[C-](c3ccccc3)CC2c2ccccc2)cc1 (stereo unspecified),> 30
17,COc1ccc(C2CC(c3cccnc3)=NN2c2ccc(S(N)(=O)=O)cc2)cc1 (stereo unspecified),> 30
18,COc1ccc(C2CC(c3cccc(Br)c3)=NN2c2ccc(S(N)(=O)=O)cc2)cc1 (stereo unspecified) [UNM-0000306113],> 30
19,"Cc1ccccc1N1N=C(c2ccccc2)CC1c1ccc(N(C)C)cc1 (stereo unspecified) [N,N-dimethyl-4-[2-(2-methylphenyl)-5-phenyl-3,4-dihydropyrazol-3-yl]aniline]",> 30
20,COc1ccc(C2CC(c3ccccc3C)=NN2c2ccc(S(N)(=O)=O)cc2)cc1 (stereo unspecified) [UNM-0000306152],> 30
21,Cc1ccc(-c2cc(C(F)(F)F)nn2-c2ccc(S(N)(=O)=O)cc2)cc1 [Celecoxib],> 30
22,COc1ccc(C2CC(c3ccc(F)cc3)=NN2c2ccccc2)cc1OC (stereo unspecified) [UNM-0000305864],> 30
23,"COc1ccc(C2CC(c3ccccc3)=NN2c2ccc(Cl)c(C(=O)O)c2)cc1OC (stereo unspecified) [2-chloro-5-[3-(3,4-dimethoxyphenyl)-5-phenyl-3,4-dihydropyrazol-2-yl]benzoic acid]",> 30
24,Cc1ccccc1C1CC(c2ccccc2)=NN1c1ccc(S(N)(=O)=O)cc1 (stereo unspecified) [UNM-0000306148],> 30

# Same assay, conditions: inactive by the depositor's call
row,Structure (SMILES),EC50 [µM]
1,"COc1ccc(C2CC(c3ccccc3)=NN2c2cccc(S(N)(=O)=O)c2)cc1 (stereo unspecified) [3-[3-(4-methoxyphenyl)-5-phenyl-3,4-dihydropyrazol-2-yl]benzenesulfonamide]",0.074
2,"COc1ccc(C2=NN(c3ccc(S(N)(=O)=O)cc3)C(c3ccc(OC)cc3)C2)cc1 (stereo unspecified) [4-[3,5-bis(4-methoxyphenyl)-3,4-dihydropyrazol-2-yl]benzenesulfonamide]",1.69
